# In the NIST ThermoML archive (doi:10.1016/j.jct.2014.07.018):
# ± gives the expanded uncertainty stated by the source.
# Test: Molar enthalpy of transition or fusion
# Conditions: Adiabatic calorimetry
SMILES,Molar enthalpy of transition or fusion (Crystal),Molar enthalpy of transition or fusion (Crystal 2)
CCCCn1cc[n+](C)c1.[I-] [1-butyl-3-methylimidazolium iodide],18.99 ± 0.08 kJ/mol,
CCC[n+]1ccn(C)c1.[Br-] [1-methyl-3-propylimidazolium bromide],,19.11 ± 0.14 kJ/mol
